Experimental data published in article PMC2994807 (Biochemistry, 2010).

Assays:
[1] = molecular target: dialkylglycine decarboxylase (DGD); WT DGD (Burkholderia cepacia, UniProt P16932, M141R/W138F); assay: biochemical
[2] = molecular target: dialkylglycine decarboxylase (DGD); WT DGD (Burkholderia cepacia, UniProt P16932, W138F); assay: biochemical

Compound	Ki [1]	Ki [2]
N[C@H](CCC(=O)O)C(=O)O [D-glutamate]	89 mM	–
N[C@@H](C(=O)O)c1ccccc1 [D-phenylglycine]	–	50 mM
